US20200087625A1, “METHODS FOR ISOLATING, EXPANDING AND ADMINISTERING CANCER SPECIFIC CD8+ T CELLS” (priority 2017, published 2020)

What was measured:
[1] = tested on: primary tumor; settings: cited from earlier work
[2] = tested on: dendritic cells; experiment: Dendritic cell activation and CD8+ T cell recruitment in mLN and lungs; format: in vivo, BALB/c mice; settings: day 7
Procedure: FIGS. 25A-25F. Innate immune cells, NK cells and dendritic cells are activated following 1V270 therapy and contribute to anti-metastatic effects (A-C) Systemic administration of 1V270 activates dendritic cells and increases CD8^+ cell recruitment in the lung draini lymph node. (A) BALB/c mice (n=S/group) were treated with 1V270 on day −1 and then tumor cells were i.v. administered on day 0. Seven days later, mediastinal lymph node (mLN) cells were stained for dendritic cells (DC; CD45^+CD11c^+MHC classll^+). (B) DCs were further stained for CD80 and CD86. (C) The mLN cells were also stained for central memory CD8^+ T cells (CD3+CD8^+CD44^+CD62L^+), effector memory CD8^+ T cells (CD3+CD8^+CD44^+CD62L^+), and naive CD8^+ T cells (CD3+CD8^+CD44^−CD62L^−). Each dot indicates an individual mouse and horizontal and vertical bars indicate means±SEM. Data are representative of 3 independent experiments showing similar results. *P<0.05, **P<0.01 by Mann-Whitney U test comparing the individual groups. (D-F) In vivo imaging analyses using GLF•expressing 4T1 cells (4T1-GLF). (D) BALB/c mice (n=14-15/group) were i.p, administered with 200 μg 1V270 or vehicle. Next day, 2×10^4 4T1-GLF cells were i.v. injected through the tail vein. Tumor signals were quantified by IVIS. Data (mean±SEM) were pooled from 3 independent experiments showing similar results. *P<0.05, **P<0.01 by two-way ANOVA using a Bonferroni post hoc test comparing treatment groups against the vehicle group. […] (E,F) NK cells recruited by 1V270 therapy prevent colonization of 4T1 cells. (E) BALB/c mice (n=G−7/group) were treated with 1V270 (200 μg/injection) on day −1 and then tumor cells were i.v. administered on day 0. On the next day, lung cells were stained for NK markers (CD45^+[…] NKp46^+CD49^+) and analyzed by flow cytometry. […] Tumor signals were analyzed as described above. […]
Since the 1V270 therapy induced a tumor-specific CD8^+ T cell response in the 4T1 model, we evaluated whether the therapy activated APCs in the lungs, and/or in the draining lymph nodes. […]

[3] = tested on: CD8+ T cells; experiment: TCR repertoire analysis of CD8+ T cells from TILs and spleens; format: in vivo, BALB/c mice

CCCCCCCCC=CCCCCCCCC(=O)OCC(COP(=O)(O)OCCNC(=O)c1ccc(Cn2c(=O)[nH]c3c(N)nc(OCCOC)nc32)cc1)OC(=O)CCCCCCCC=CCCCCCCCC (stereo not drawn) [1V270]
primary tumor growth ([1]; intratumoral administration): inhibits primary tumor growth | systemic cytokine induction ([1]; local (intratumoral) treatment): without causing systemic cytokine induction | frequencies of cells expressing co-stimulatory molecules (CD80 or CD86) ([2]; 1V270 i.p. day -1): significantly increased | recruitment of CD8+ T cells (central memory, effector memory, naive) ([2]; mLN): recruitment of CD8^+ T cells with memory and nalve phenotypes | population of CD11c+ dendritic cells ([2]; mLNs and lungs, 1V270 i.p. day -1): increased in both mLNs and the lungs | BUB overlap index between TILs and splenocytes ([3]; 1V270-treated tumor-exposed vs non-tumor exposed mice): significantly higher BUB indices | number of shared clones in TILs ([3]; 1V270 treated tumor-exposed group vs no-tumor exposed group): eight-fold higher | TCRα clonotypes shared by 3 or more individuals ([3]; non-tumor group): 5 | clonality of CD8+ T cells ([3]; secondarily challenged tumors): increased clonality of CD8^+ T cells | TCRα clonotypes shared by 3 or more individuals ([3]; tumor-exposed group): 31 | TCRβ clonotypes shared by 3 or more individuals ([3]; tumor-exposed group): 11 | frequency of shared clones ([3]; tumor-exposed vs non-tumor exposed mice): significantly higher in tumor-exposed mice than in non-tumor exposed mice
